Assay results from patent EP0017478A1, “Dialkoxy- and dioxacycloalkyl-alkyltheobromines, pharmaceutical compositions containing them and their preparation” (BEECHAM - WUELFING GmbH & Co. KG, priority 1979, dated 1980).

How the values were obtained:
gastrocnemius muscle = experiment: Measurement of muscle surface pO2 (multiwire-surface electrode, one femoral artery ligated to induce ischaemia); format: in vivo, Cats; details: 12.5 mg/kg i.d., suspension in Methocel, n = 4; for Cs (significance coefficient = number of measuring sites with significant pO2 increase per total number of measuring sites) / ΔpO2 (mean pO2 increase in experiments with significant pO2 increase): anaesthetized cats; for E (efficiency-index = Cs x ΔpO2): control values E between 0.1 and 1.2 Torr
Protocol: (§1) Cats of either sex were anaesthetized by i.p. injection of urethane/chloralosc (120/60 mg/kg). The intraduodenal (i.d.) administration of compounds was conducted by means of a plastic.catheter which was inserted into the duodenum following midline incision at the abdominal cavity.
Measurement of muscle surface p02. The skin above the measuring site (3-4 mm in diameter) was removed and one multiwire-surface electrode (Eschweiler, Kiel) was placed on the gastrocnemius muscle of each hindlimb. The femoral artery in one hindlimb was ligated in order to induce ischaemia. Muscle temperature was controlled by means of a thermocouple (Ellab, Copenhagen). The electrode current was measured every 6 to 8 s and collected for periods of 4 min (Hewlett-Packard programmable data logger system 3051 A). After each period, mean value and standard deviation was calculated.

[1] = Observation of toxic effects at the test dosages; format: in vivo; details: at the test dosage 12.5 mg/kg i.d., cats
Protocol: as §1

Cn1cnc2c1c(=O)n(CCCCC1(C)OCCO1)c(=O)n2C [2-Methyl-2-(theobrominyl-butyl-4)-1,3-dioxalane]
Cs (significance coefficient = number of measuring sites with significant pO2 increase per total number of measuring sites) (gastrocnemius muscle; hypoxic tissue): 1 | ΔpO2 (mean pO2 increase in experiments with significant pO2 increase) (gastrocnemius muscle; hypoxic tissue): 3.7 Torr | E (efficiency-index = Cs x ΔpO2) (gastrocnemius muscle; hypoxic tissue): 3.7 Torr | Cs (significance coefficient = number of measuring sites with significant pO2 increase per total number of measuring sites) (gastrocnemius muscle; normoxic tissue): 1 | ΔpO2 (mean pO2 increase in experiments with significant pO2 increase) (gastrocnemius muscle; normoxic tissue): 4.8 Torr | E (efficiency-index = Cs x ΔpO2) (gastrocnemius muscle; normoxic tissue): 4.8 Torr | toxic effects [1]: No toxic effects were observed
